Measured values as given in US11376230B2 (priority 2011, dated 2022).
Where two headings read alike, the source gives them in different places.

How the values were obtained:
P. aeruginosa biofilms = details: for Average CFU: 24 h treatment of 24 h old biofilm
Description: (§1) The wild-type P. aeruginosa PAO1 used for the planktonic and biofilm experiments was obtained from the Pseudomonas Genetic Stock Center (www.pseudomonas.med.ecu.edu, strain PAO0001). The wild-type S. aureus 8325-4, used for planktonic and biofilm experiments was described by Novick, R. P. 1967. The following bacteria were obtained from the Department of Clinical Microbiology, Copenhagen University Hospital, Denmark: E. coli (wild type and clinical ESBL producing strains), S. aureus (wild type and clinical MRSA strains) and Klebsiella pneumoniae (clinical ESBL producing strain).
For plating, Luria broth (LB) medium mix with 2.0% agar was used. For all experiments including bacterial biofilms, AB minimal medium supplemented with glucose was used except if different is mentioned. AB minimal medium consists of: A standard buffer system consisting of (NH4)2SO4 (15.1 mM), Na2HPO4.2H2O (33.7 mM) and KH2PO4 (22.0 mM. NaCl (0.051 M), MgCl2 (1 mM), CaCl2 (0.1 mM), and trace metals (100 μl/liter). The trace metal solution contained CaSa4.2H2O (200 mg/liter), FeSO4.7H2O (200 mg/liter), MnSO4.H2O (20 mg/liter), CuSO4.5H2O (20 mg/liter), ZnSO4.7H2O (20 mg/liter), CoSO4.7H2O (10 mg/liter), NaMoO4.H2O, and H3BO3 (5 mg/liter).
(§2) Two types of biofilm setups were used, micropore filter assay and a microtitter plate assay: • The microtitter plate assay is based on biofilms growing in microtiter dishes with AB minimal medium containing 0.3 mM glucose as described by O′ toole et al (1999). • The Micro-pore assay is based on biofilms growing on a micropore filter on AB minimal agar plates. The micropore filters are placed on top of an AB minimal agar plate. Bacteria are propagated on the micro-pore filters as spots of 20 μl bacterial suspension and incubated at 37° C. For a biofilm to develop the filters were transferred to a fresh AB minimal agar plate once after 24 hours. The biofilm were mature and ready for use after 48 hours incubation in total, at 37° C. Planktonic cultures were grown in shake flasks at 37° C. The microtitter plate assay for biofilm tolerance to sodium diacetate was assessed by exchanging the AB minimal medium of 24 h old biofilms with AB minimal medium supplemented with different concentrations of sodium diacetate.
The antimicrobial effect was determined by plating the treated and non-treated biofilm. To ensure complete removal of all adhering bacteria the wells of the microtitter plate were washed mechanically.

[1] = tested on: E. coli (wild type and clinical ESBL producing strains) biofilm
Description: as §1, §2
(§3) To elucidate the efficacy of dry sodium diacetate on microbial biofilms of P. aeruginosa. Bacteria were propagated on a micropore filter for biofilm formation. The Micro-pore filters were placed on top of an LB-agar plate. Bacteria were spread on the micro-pore filters as spots and incubated at 37° C. For a biofilm to develop the filters were transferred to a fresh LB-agar plate once after 24 hours. The biofilm were mature and ready for use after 48 hours incubation in total, at 37° C.
(§4) After 48 hours NaHAc2 was added on top of the biofilm spot, either directly or between two pieces of gauze. The control was plain gauze. All treatments were incubated for 24 hours. The effect was evaluated by replication of the micro pore filter after treatment. The endpoint was growth or no growth of bacteria after the treatment.

[2] = tested on: Klebsiella pneumoniae (clinical ESBL producing strain) biofilm; details: dry sodium diacetate, same method as example 3
Description: as §1, §2, §3, §4

[3] = tested on: P. aeruginosa mature biofilm
Description: as §1, §2, §3, §4

[4] = tested on: S. aureus (wild type and clinical MRSA strains) biofilm; details: dry sodium diacetate, same method as example 3
Description: as §1, §2, §3, §4

[5] = tested on: bacterially infected chronic wounds; details: dressings with 0.2 mg/cm^2 or less on surface, with negative pressure wound therapy; initial results
Protocol: To elucidate the clinical potential of sodium diacetate in wound care human clinical trials are being performed in a hospital setting to test the efficacy of dressings incorporating sodium diacetate on bacterially infected chronic wounds.
Dressings are used employing 0.2 mg/cm^2 or less of sodium diacetate on the surface of the dressing material. Incorporating smaller amounts of sodium diacetate is tested incrementally. Initial trials are performed using negative pressure wound therapy in combination with dressings incorporating sodium diacetate as described herein. Trials are performed on test subjects having chronic wounds due to infection with for example P. aeruginosa and with reduced immune responses due to for example, drug abuse, diabetes, or obesity.

[6] = 24 hours old static biofilms in AB minimal medium

CC(=O)O.CC(=O)[O-].[Na+] [sodium diacetate]
Average CFU (P. aeruginosa biofilms; 0.25% NaHAc2 (w/v)): 1.15E+09 CFU
Average CFU (P. aeruginosa biofilms; 0.50% NaHAc2 (w/v)): 3.12E+08 CFU
Average CFU (P. aeruginosa biofilms; 0.75% NaHAc2 (w/v)): 9.63E+07 CFU
Average CFU (P. aeruginosa biofilms; 1.00% NaHAc2 (w/v)): 8.05E+06 CFU
Average CFU (P. aeruginosa biofilms; 1.25% NaHAc2 (w/v)): 1.96E+05 CFU
Average CFU (P. aeruginosa biofilms; 1.50% NaHAc2 (w/v)): 1.98E+03 CFU
Average CFU (P. aeruginosa biofilms; 1.75% NaHAc2 (w/v)): 0 CFU
Average CFU (P. aeruginosa biofilms; 2.00% NaHAc2 (w/v)): 0 CFU
Average CFU (P. aeruginosa biofilms; 2.25% NaHAc2 (w/v)): 0 CFU
Average CFU (P. aeruginosa biofilms; 2.50% NaHAc2 (w/v)): 0 CFU
Average CFU (P. aeruginosa biofilms; 2.75% NaHAc2 (w/v)): 0 CFU
Average CFU (P. aeruginosa biofilms; 3% NaHAc2 (w/v)): 0 CFU
concentration at which an effect of the salt is already seen (P. aeruginosa biofilms; [6]): 0.25 % (W/V)
concentration giving complete killing of the biofilm bacteria (P. aeruginosa biofilms; [6]): 1.75 % (W/V)
concentration giving complete killing of the biofilm bacteria (P. aeruginosa biofilms; 24 hours old static biofilms in AB minimal medium, listed as NaHAc2): ≥ 1.75 % (W/V)
killing of biofilm (P. aeruginosa biofilms; even the lowest concentrations of NaHAc2): partial killing
growth or no growth of bacteria after treatment ([1]; between gauze soaked in wounds buffer (FIG. 4)): complete eradication
growth or no growth of bacteria after treatment ([1]; dry between gauze (FIG. 4)): complete eradication
eradication of biofilm infection ([1]; dry sodium diacetate, same method as example 3, wild type and clinical ESBL producing strains): completely eradicated
growth or no growth of bacteria after treatment ([1]; foam soaked in wounds buffer (FIG. 4)): complete eradication
eradication of biofilm infection [2]: completely eradicated
growth or no growth of bacteria after treatment ([3]; NaHAc2 on top of 48 h biofilm spot, directly or between two pieces of gauze, 24 hours): completely eradicates
growth or no growth of bacteria after treatment ([3]; treatment 1: dry between gauze): complete eradication
growth or no growth of bacteria after treatment ([3]; treatment 2: between gauze soaked in wounds buffer): complete eradication
growth or no growth of bacteria after treatment ([3]; treatment 3: foam soaked in wounds buffer): complete eradication
growth or no growth of bacteria after treatment ([3]; treatment 4: dry): complete eradication
eradication of biofilm infection [4]: completely eradicated
infections of chronic wounds [5]: eradicated
wound healing [5]: accelerated
Media pH (0.50% NaHAc2 (w/v) in AB minimal media): 5.78
Media pH (0.75% NaHAc2 (w/v) in AB minimal media): 5.31
Media pH (1.00% NaHAc2 (w/v) in AB minimal media): 5.09
Media pH (1.25% NaHAc2 (w/v) in AB minimal media): 4.99
Media pH (1.50% NaHAc2 (w/v) in AB minimal media): 4.91
Media pH (1.75% NaHAc2 (w/v) in AB minimal media): 4.86
Media pH (2.00% NaHAc2 (w/v) in AB minimal media): 4.83
Media pH (2.25% NaHAc2 (w/v) in AB minimal media): 4.80
Media pH (2.50% NaHAc2 (w/v) in AB minimal media): 4.78
Media pH (2.75% NaHAc2 (w/v) in AB minimal media): 4.76
Media pH (3.00% NaHAc2 (w/v) in AB minimal media): 4.74
concentration at which the pH value levels out (AB minimal media (FIG. 1)): around 1.5 g/L
pH of aqueous AB minimal media (at 3 g/L of sodium diacetate (FIG. 1)): ~4.75
